From US10752612B2, “PLK4 inhibitors” (LUDWIG INSTITUTE FOR CANCER RESEARCH LTD, priority 2015, dated 2020) come the findings set out here.

Molecules are shown by their SMILES.

The assay concerns the target T1, human Plk4 kinase domain (aa 2-275) (Homo sapiens, UniProt O00444).
T1 construct: purified 6×His-tagged human Plk4 kinase domain (aa 2-275); 6xHis; made in house; host or cells: E. coli
T1 sequence (O00444 2-275): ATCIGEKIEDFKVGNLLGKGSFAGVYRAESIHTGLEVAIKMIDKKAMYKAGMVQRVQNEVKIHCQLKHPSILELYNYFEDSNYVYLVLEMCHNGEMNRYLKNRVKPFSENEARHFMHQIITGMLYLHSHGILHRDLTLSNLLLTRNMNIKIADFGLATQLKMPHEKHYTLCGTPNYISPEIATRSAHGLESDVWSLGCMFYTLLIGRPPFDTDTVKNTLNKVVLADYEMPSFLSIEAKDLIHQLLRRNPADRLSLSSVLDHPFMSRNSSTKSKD
As to the kind of experiment: Plk4 kinase assay (ADP-Glo). It is filed as biochemical. Conditions: Table 1. The essentials: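 Enzyme at 2.5-10 nM final, pH 8.0, reacted 4-16 hours at 25° C; ADP generation read by ADP-Glo luminescence. Ki derived from IC50 by Cheng-Prusoff or, for tight binders, Copeland formalism.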

Regarding `COc1c(Nc2cc(C)[nH]n2)nc(Sc2ccc(S(=O)(=O)Cc3cccc(F)c3F)cc2F)nc1N1CCCCC1`, the IC50 was less than 1 µM.
Under `COc1c(Nc2cc(C)[nH]n2)nc(Sc2ccc(C(=O)N(C)C)cc2)nc1N1CCN(CCN(C)C)CC1` stands less than 1 µM; under `CCc1c(C)nc(Sc2ccc(NC(=O)C3CC3)cc2)nc1Nc1cc(C)[nH]n1`, greater than 1 µM; under `COc1c(Nc2cc(C)[nH]n2)nc(Sc2ccc(NC(C)=O)cc2)nc1N1CCN(CCN2CCC(O)CC2)CC1`, 0.1 to 1 µM.
Under `CCOc1c(Nc2cc(C)[nH]n2)nc(Sc2ccc(NC(=O)C3CC3)cc2)nc1N(C)CCOC` stands 0.1 to 1 µM; under `COCC(=O)N1CCN(c2nc(Sc3ccc(NC(C)=O)cc3)nc(Nc3cc(C)[nH]n3)c2OC)CC1`, less than 1 µM.
Under `CC(=O)Nc1ccc(Sc2nc(N3CCC(O)CC3)nc(Nc3cc(C)[nH]n3)c2Cl)cc1` stands less than 1 µM; under `CCOc1c(Nc2cc(C)[nH]n2)nc(Sc2ccc(NC(=O)C3CCCC3)cc2)nc1N1CCN(C(C)=O)CC1`, 0.1 to 1 µM.
`COc1c(Nc2cc(C)[nH]n2)nc(Sc2ccc(NC(C)=O)cc2)nc1N1CCN(CCNC(C)=O)CC1` gave an IC50 of less than 1 µM.
In turn, `COc1c(Nc2cc(C)[nH]n2)nc(Sc2ccc(NC(C)=O)cc2)nc1N1CCN(C(=N)N)CC1` gave an IC50 of less than 1 µM.
Under `COc1c(Nc2cc(C)[nH]n2)nc(Sc2ccc(NC(=O)C3CC3)cc2)nc1N1CCN(C(=O)CCN(C)C)CC1` stands less than 1 µM; under `COc1c(Nc2cc(C)[nH]n2)nc(Sc2ccc(S(=O)(=O)C(C)(C)c3cccc(Cl)c3F)cc2F)nc1N1CCC(CCN(C)C)CC1`, less than 1 µM.
As for `CC(=O)Nc1ccc(Sc2nc(Nc3cc(C)[nH]n3)c(C)c(N(C)C(C)C)n2)cc1`, the IC50 is less than 1 µM.
In turn, `COc1c(Nc2cc(C)[nH]n2)nc(Sc2ccc(S(=O)(=O)Cc3cccc([N+](=O)[O-])c3C#N)cc2)nc1N1CCN(CCN(C)C)CC1` had an IC50 of less than 1 µM.
Under `CCOc1c(Nc2cc(C)[nH]n2)nc(Sc2ccc(NC(C)=O)cc2)nc1N1CCN(CCOC)CC1` stands 0.1 to 1 µM.
Under `CCOc1c(Nc2cc(C)[nH]n2)nc(Sc2ccc(NC(=O)C3CCCC3)cc2)nc1N1CCOCC1` stands 0.1 to 1 µM; under `CCOc1c(Nc2cc(C)[nH]n2)nc(Sc2ccc(NC(C)=O)cc2)nc1N1CCN(C)CC1`, 0.1 to 1 µM; under `CCN(c1nc(Sc2ccc(NC(C)=O)cc2)nc(Nc2cc(C)[nH]n2)c1C)C(C)C`, less than 1 µM.
To `CC(=O)Nc1ccc(Sc2nc(Nc3cc(C)[nH]n3)c(C)c(N3CCC(CCN(C)C)CC3)n2)cc1` belongs less than 1 µM; to `COc1c(Nc2cc(C)[nH]n2)nc(Sc2ccc(S(=O)(=O)Cc3cccc([N+](=O)[O-])c3F)cc2)nc1N1CCCCC1`, less than 1 µM.
On to `COc1c(Nc2cc(C)[nH]n2)nc(Sc2ccc(NC(C)=O)cc2)nc1N1CC=C(F)CC1`, for which the IC50 was less than 1 µM.
`CNCCN(C)c1nc(Sc2ccc(NC(=O)C3CC3)cc2)nc(Nc2cc(C)[nH]n2)c1OC`: the IC50 lay in the range of 0.1 to 1 µM.
Compound `COc1c(Nc2cc(C)[nH]n2)nc(Sc2ccc(S(=O)(=O)Cc3ccccc3)cc2)nc1C1CCN(CCN(C)C)CC1` showed an IC50 of less than 1 µM.
To `COc1c(Nc2cc(C)[nH]n2)nc(Sc2ccc(S(=O)(=O)C(C)(C)c3cccc([N+](=O)[O-])c3F)cc2F)nc1N1CCN(C(C)=O)CC1` belongs less than 1 µM; to `COc1c(Nc2cc(C)[nH]n2)nc(Sc2ccc(NC(C)=O)cc2)nc1C1=CCNCC1`, less than 1 µM.
To `COc1c(Nc2cc(C)[nH]n2)nc(Sc2ccc(S(=O)(=O)Cc3cccc([N+](=O)[O-])c3F)cc2F)nc1N1CCOC[C@@H]1CO` belongs less than 1 µM; to `CNC1CCN(c2nc(Sc3ccc(S(=O)(=O)C(C)(C)c4cccc([N+](=O)[O-])c4F)cc3F)nc(Nc3cc(C)[nH]n3)c2OC)CC1`, less than 1 µM; to `CCOc1c(Nc2cc(C)[nH]n2)nc(Sc2ccc(NC(C)=O)cc2)nc1N(CC)CC`, 0.1 to 1 µM.
Under `COc1c(Nc2cc(C)[nH]n2)nc(Sc2ccc(S(=O)(=O)Cc3cccc([N+](=O)[O-])c3)cc2)nc1N1CCN(CCN(C)C)CC1` stands less than 1 µM; under `CCOc1c(Nc2cc(C)[nH]n2)nc(Sc2ccc(NC(C)=O)cc2)nc1N(C)CC`, 0.1 to 1 µM; under `COc1c(Nc2cc(C)[nH]n2)nc(Sc2ccc(S(=O)(=O)Cc3cccc(C(=O)O)c3)cc2)nc1N1CCN(CCN(C)C)CC1`, less than 1 µM.
Turning to `Cc1cc(Nc2nc(Sc3ccccc3)nc(N(C)C(C)C)c2C)n[nH]1`, the half-maximal inhibitory concentration (IC50) was less than 1 µM.
Under `CC(=O)Nc1ccc(Sc2nc(Nc3cc(C)[nH]n3)c(C)c(N3CCN(C(=O)C(C)C)CC3)n2)cc1` stands less than 1 µM; under `CC(=O)Nc1ccc(Sc2nc(Nc3cc(C)[nH]n3)c(C)c(N3CCCC3)n2)cc1`, less than 1 µM.
`COc1c(Nc2cc(C)[nH]n2)nc(Sc2ccc(NC(C)=O)cc2)nc1N1CCN(C(=N)NO)CC1` came in with an IC50 of less than 1 µM.
Under `COc1c(Nc2cc(C)[nH]n2)nc(Sc2ccc(NC(C)=O)cc2)nc1N1CCN(CCN(C)Cc2ccccc2)CC1` stands less than 1 µM; under `COc1c(Nc2cc(C)[nH]n2)nc(Sc2ccc(NC(=O)C3CC3)cc2)nc1N1CCN(c2ccccc2)CC1`, 0.1 to 1 µM; under `CCCC(=O)Nc1ccc(Sc2nc(Nc3cc(C)[nH]n3)c(C)c(N3CCN(C)CC3)n2)cc1`, less than 1 µM.
Regarding `COc1c(Nc2cc(C)[nH]n2)nc(Sc2ccc(S(=O)(=O)Cc3cccc([N+](=O)[O-])c3F)cc2F)nc1N1CCC(NC(C)=O)CC1`, the half-maximal inhibitory concentration (IC50) is less than 1 µM.
Under `COc1c(Nc2cc(C)[nH]n2)nc(Sc2ccc(C(C)=O)cc2)nc1N1CCN(CCN(C)C)CC1` stands less than 1 µM; under `CNC(=O)Nc1ccc(Sc2nc(Nc3cc(C)[nH]n3)c(C)c(N3CCCCC3)n2)cc1`, less than 1 µM; under `COc1c(Nc2cc(C)[nH]n2)nc(Sc2ccc(NC(C)=O)cc2)nc1N1CCN(CCN2CCCC2)CC1`, less than 1 µM.
Under `Cc1cc(Nc2nc(Sc3ccc(NC(=O)C4CCCC4)cc3)nc(N(C)C)c2C)n[nH]1` stands less than 1 µM; under `COc1c(Nc2cc(C)[nH]n2)nc(Sc2ccc(S(=O)(=O)Cc3nccs3)cc2)nc1N1CCN(CCN(C)C)CC1`, less than 1 µM; under `CCN1CCN(c2nc(Sc3ccc(NC(=O)C4CC4)cc3)nc(Nc3cc(C)[nH]n3)c2OC)CC1`, less than 1 µM.
Under `CCN(CC)c1nc(Sc2ccc(NC(=O)C3CCCC3)cc2)nc(Nc2cc(C)[nH]n2)c1OC` stands 0.1 to 1 µM; under `CCS(=O)(=O)c1ccc(Sc2nc(Nc3cc(C)[nH]n3)c(OC)c(N3CCOCC3)n2)cc1`, less than 1 µM.
In turn, `Cc1cc(Nc2nc(Sc3ccc([N+](=O)[O-])cc3)nc3c2CCC32CCN(CCN(C)C)CC2)n[nH]1` returned a half-maximal inhibitory concentration (IC50) of less than 1 µM.
To `COc1c(Nc2cc(C)[nH]n2)nc(Sc2ccc(NC(C)=O)cc2)nc1N1CCC(N(C)C)CC1` belongs less than 1 µM; to `COC(=O)Nc1ccc(Sc2nc(Nc3cc(C)[nH]n3)c(C)c(N3CCCCC3)n2)cc1`, less than 1 µM.
To `CCc1cc(Nc2nc(Sc3ccc(NC(=O)C4CC4)cc3)nc(N3CCN(C)CC3)c2C)n[nH]1` belongs greater than 1 µM; to `COc1c(Nc2cc(C)[nH]n2)nc(Sc2ccc(C#Cc3cccc([N+](=O)[O-])c3F)cc2F)nc1N1CCOCC1`, less than 1 µM.
Turning to `COc1cccc(CS(=O)(=O)c2ccc(Sc3nc(Nc4cc(C)[nH]n4)c(OC)c(N4CCN(CCN(C)Cc5ccccc5)CC4)n3)cc2)c1`, the IC50 is less than 1 µM.
Under `COc1c(Nc2cc(C)[nH]n2)nc(Sc2ccc(S(=O)(=O)Cc3cccc([N+](=O)[O-])c3F)cc2F)nc1N1CCN(CCN(C)C)CC1` stands less than 1 µM; under `COc1c(Nc2cc(C)[nH]n2)nc(Sc2ccc(NC(C)=O)cc2)nc1N1CCN(CCN2C3CCCC2CCC3)CC1`, less than 1 µM; under `COc1c(Nc2cc(C)[nH]n2)nc(Sc2ccc(S(=O)(=O)Cc3cccc([N+](=O)[O-])c3F)cc2)nc1N1CCOCC1`, less than 1 µM.
Compound `CC(=O)Nc1ccc(Sc2nc(Nc3cc(C)[nH]n3)c(C)c(N3CCC(OCCN(C)C)CC3)n2)cc1` registered a concentration for half-maximal inhibition (IC50) of less than 1 µM.
To `COCC(=O)N1CCN(c2nc(Sc3ccc(NC(=O)C4CC4)cc3)nc(Nc3cc(C)[nH]n3)c2OC)CC1` belongs less than 1 µM.
`CC(=O)Nc1ccc(Sc2nc(Nc3cc(C)[nH]n3)c(C)c(N(C)C)n2)cc1` had a half-inhibitory concentration (IC50) of less than 1 µM.
The compound `COc1c(Nc2cc(C)[nH]n2)nc(Sc2ccc(S(=O)(=O)C(C)(C)c3cccc([N+](=O)[O-])c3F)cc2F)nc1N1CCC(CCN(C)C)CC1` came in with an IC50 of less than 1 µM.
`COc1c(Nc2cc(C)[nH]n2)nc(Sc2ccc(S(=O)(=O)Cc3ccccc3-c3ccccc3)cc2)nc1N1CCN(CCN(C)C)CC1` returned a half-maximal inhibitory concentration (IC50) of less than 1 µM.
For the compound `COc1c(Nc2cc(C)[nH]n2)nc(Sc2ccc(NC(C)=O)cc2)nc1N1CCN(CCN2CCCCCC2)CC1`, the IC50 was less than 1 µM.
To `COc1c(Nc2cc(C)[nH]n2)nc(Sc2ccc(NC(C)=O)cc2)nc1N1CCC(CCN(C)C)CC1` belongs less than 1 µM; to `CCOc1c(Nc2cc(C)[nH]n2)nc(Sc2ccc(NC(C)=O)cc2)nc1N1CCN(CCN(C)C)CC1`, 0.1 to 1 µM; to `COc1c(Nc2cc(C)[nH]n2)nc(Sc2ccc(S(=O)(=O)Cc3cccc([N+](=O)[O-])c3)cc2F)nc1N1CCOC[C@H]1C`, less than 1 µM.
As for `CCOc1c(Nc2cc(C)[nH]n2)nc(Sc2ccc(NC(=O)C3CC3)cc2)nc1N1CCNCC1` [drawing 126], the IC50 was in the range of 0.1 to 1 µM.
To `COc1c(Nc2cc(C)[nH]n2)nc(Sc2ccc(NC(=O)C3CC3)cc2)nc1N1CCN(CCN(C)C)CC1` belongs less than 1 µM.
Under `COc1c(Nc2cc(C)[nH]n2)nc(Sc2ccc(S(=O)(=O)Cc3cccc(N(C)C)c3)cc2)nc1N1CCN(CCN(C)C)CC1` stands less than 1 µM.

A word on the IC50: it is the midpoint of a concentration-inhibition curve.
